Molecules are shown by their SMILES. pIC50: −log10 of the molar value. Like-named read-outs stand apart in the source and are kept apart here.

The test system of one assay is HeLa. Put plainly: MTS proliferation assay, HeLa. The following applies: 72 h incubation, read-out: MTS proliferation assay IC 50 HeLa. Format: cell-based, human. The procedure, abridged: (§1)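 A 72 h exposure to compound (final 0.3–10 μM, four levels) was followed by 3 h MTS incubation and an A492 read.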
For orientation: Tetrazolium dyes change colour on reduction, which living cells bring about.

The next assay relates to Jurkat. Put plainly: MTS proliferation assay, Jurkat. Format: cell-based, human. The settings on record: 72 h incubation, read-out: MTS proliferation assay IC 50 Jurkat. An outline of the steps: as §1
Another assay concerns HT1080. The assay is described as follows: MTS proliferation assay, HT1080. It counts as cell-based, human. The settings on record: HT1080, 72 h incubation, read-out: MTS proliferation assay IC 50 HT1080. The procedure, abridged: as §1
The subject of assay [1] is adherent cells or suspension cells. The assay is described as follows: Hoechst 33342 nuclear staining (fraction of apoptotic nuclei). Format: cell-based. The arrangement: key: 0 relating to no activity; 1 relating to weak activity comprising less than 70% of the cells; score 2 relating to strong activity comprising more than 70% of the cells.
The next assay has as its system MRC5. The assay is described as follows: MTS proliferation assay, MRC5. It counts as cell-based. The settings on record: MRC5, 72 h incubation, read-out: MTS proliferation assay IC 50 MRC5. The procedure, abridged: (§2)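 Proliferation is followed by MTS conversion, measured as absorbance at 492 nm. Cells are exposed for 72 h to four fixed compound concentrations (10 μM down to 0.3 μM) under 37° C, 7.5% CO2 culture conditions.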

In the next assay the test system is Jily. The assay is described as follows: MTS proliferation assay, Jily. The settings on record: 72 h incubation, read-out: MTS proliferation assay IC 50 Jily. Format: cell-based. The procedure, abridged: as §2

`Cc1ccc(/C=C/C(=O)Cn2c(-c3nonc3N)nc3ccccc32)cc1` [Example 119]: the pIC50 in the assay with HeLa, in the assay with Jurkat, in the assay with HT1080, in the assay with MRC5 and with Jily was less than 6.00 throughout. For the same compound, the “Hoechst 33342 nuclear staining score” value in assay [1] (H460, conc 0.01 μm) came to 0; in assay [1] (H460, conc 0.1 μm), 0; in assay [1] (H460, conc 1 μm), 0; in assay [1] (HeLa, conc 0.01 μm), 0; in assay [1] (HeLa, conc 0.1 μm), 0; in assay [1] (HeLa, conc 1 μm) it was 0. The “Hoechst 33342 nuclear staining score” value in assay [1] (Jily, conc 0.01 μm) amounted to 0; in assay [1] (Jily, conc 0.1 μm) it was 0; in assay [1] (Jily, conc 1 μm), 0; in assay [1] (Jurkat, conc 0.01 μm) it was 0; in assay [1] (Jurkat, conc 0.1 μm), 0; in assay [1] (Jurkat, conc 1 μm), 0. Besides, the “Hoechst 33342 nuclear staining score” value in assay [1] (MRC5, conc 0.01 μm) stood at 0; in assay [1] (MRC5, conc 0.1 μm), 0; in assay [1] (MRC5, conc 1 μm) it was 0; in assay [1] (PBLs, conc 0.01 μm) it was 0; in assay [1] (PBLs, conc 0.1 μm), 0; in assay [1] (PBLs, conc 1 μm), 0.

For `Nc1ccc(C(=O)Cn2c(-c3nonc3NCCC(=O)O)nc3ccccc32)cc1` [Example 13, 4-[1-(4-Aminophenacyl)-1H-benzimidazol-2-yl]-furazan-3-yl-N-(2-carboxyethyl)-amine], the pIC50 in the assay on HeLa (Homo sapiens) is 6.00 to 7.00; with Jurkat (Homo sapiens) it was 6.00 to 7.00; with HT1080 (Homo sapiens, HT-1080), 6.00 to 7.00; in the assay on MRC5 (Homo sapiens), 6.00 to 7.00; with Jily, 6.00 to 7.00. Besides, the “Hoechst 33342 nuclear staining score” value is given as 0 in assay [1] (H460, conc 0.01 μm); 0 in assay [1] (H460, conc 0.1 μm); 2 (score 2 relating to strong activity comprising more than 70% of the cells) in assay [1] (H460, conc 1 μm); 0 in assay [1] (HeLa, conc 0.01 μm); 0 in assay [1] (HeLa, conc 0.1 μm); 2 (score 2 relating to strong activity comprising more than 70% of the cells) in assay [1] (HeLa, conc 1 μm). Moreover, the “Hoechst 33342 nuclear staining score” value in assay [1] (Jily, conc 0.01 μm) was 0; in assay [1] (Jily, conc 0.1 μm), 0; in assay [1] (Jily, conc 1 μm) it was 2 (score 2 relating to strong activity comprising more than 70% of the cells); in assay [1] (Jurkat, conc 0.01 μm), 0; in assay [1] (Jurkat, conc 0.1 μm), 0; in assay [1] (Jurkat, conc 1 μm) it was 2 (score 2 relating to strong activity comprising more than 70% of the cells). Besides, the “Hoechst 33342 nuclear staining score” value in assay [1] (MRC5, conc 0.01 μm) is reported as 0; in assay [1] (MRC5, conc 0.1 μm), 0; in assay [1] (MRC5, conc 1 μm), 2 (score 2 relating to strong activity comprising more than 70% of the cells); in assay [1] (PBLs, conc 0.01 μm) it was 0; in assay [1] (PBLs, conc 0.1 μm), 0; in assay [1] (PBLs, conc 1 μm) it was 0.

Regarding `Nc1nonc1-c1nc2ccccc2n1CC(=O)c1ccccn1` [Example 59], the pIC50 in the assay on HeLa, with Jurkat, with HT1080, in the assay with MRC5 and in the assay on Jily was 6.00 to 7.00 each time. Further, the “Hoechst 33342 nuclear staining score” value is on record as 0 in assay [1] (H460, conc 0.01 μm); 0 in assay [1] (H460, conc 0.1 μm); 2 (score 2 relating to strong activity comprising more than 70% of the cells) in assay [1] (H460, conc 1 μm); 0 in assay [1] (HeLa, conc 0.01 μm); 0 in assay [1] (HeLa, conc 0.1 μm); 2 (score 2 relating to strong activity comprising more than 70% of the cells) in assay [1] (HeLa, conc 1 μm). In addition, the “Hoechst 33342 nuclear staining score” value in assay [1] (Jily, conc 0.01 μm) is 0; in assay [1] (Jily, conc 0.1 μm), 0; in assay [1] (Jily, conc 1 μm), 2 (score 2 relating to strong activity comprising more than 70% of the cells); in assay [1] (Jurkat, conc 0.01 μm), 0; in assay [1] (Jurkat, conc 0.1 μm), 0; in assay [1] (Jurkat, conc 1 μm), 2 (score 2 relating to strong activity comprising more than 70% of the cells). Also, the “Hoechst 33342 nuclear staining score” value is listed as 0 in assay [1] (MRC5, conc 0.01 μm); 0 in assay [1] (MRC5, conc 0.1 μm); 2 (score 2 relating to strong activity comprising more than 70% of the cells) in assay [1] (MRC5, conc 1 μm); 0 in assay [1] (PBLs, conc 0.01 μm); 0 in assay [1] (PBLs, conc 0.1 μm); 0 in assay [1] (PBLs, conc 1 μm).

Turning to `Nc1nonc1-c1nc2ccccc2n1CC(=NO)c1cccc(Cl)c1` (mixture of isomers) [Example 36], the pIC50 in the assay with HeLa is 7.00 to 8.00; in the assay on Jurkat, 7.00 to 8.00; in the assay on HT1080 it was 6.00 to 7.00; in the assay with MRC5, 6.00 to 7.00; in the assay on Jily, 7.00 to 8.00. For the same compound, the “Hoechst 33342 nuclear staining score” value is given as 0 in assay [1] (H460, conc 0.01 μm); 0 in assay [1] (H460, conc 0.1 μm); 0 in assay [1] (H460, conc 1 μm); 0 in assay [1] (HeLa, conc 0.01 μm); 0 in assay [1] (HeLa, conc 0.1 μm); 0 in assay [1] (HeLa, conc 1 μm). For the same compound, the “Hoechst 33342 nuclear staining score” value in assay [1] (Jily, conc 0.01 μm) turned out to be 0; in assay [1] (Jily, conc 0.1 μm), 0; in assay [1] (Jily, conc 1 μm), 0; in assay [1] (MRC5, conc 0.01 μm), 0; in assay [1] (MRC5, conc 0.1 μm), 0; in assay [1] (MRC5, conc 1 μm), 0. The “Hoechst 33342 nuclear staining score” value in assay [1] (PBLs, conc 0.01 μm) amounted to 0; in assay [1] (PBLs, conc 0.1 μm) it was 0; in assay [1] (PBLs, conc 1 μm), 0.

As for `COc1ccc(C(=O)Cn2c(-c3nonc3NCCC#N)nc3ccccc32)cc1N` [Example 69], the pIC50 was 6.00 to 7.00 with HeLa; 7.00 to 8.00 in the assay on Jurkat; 6.00 to 7.00 in the assay with HT1080; 6.00 to 7.00 with MRC5; 6.00 to 7.00 with Jily. Besides, the “Hoechst 33342 nuclear staining score” value in assay [1] (H460, conc 0.01 μm) is recorded as 0; in assay [1] (H460, conc 0.1 μm), 0; in assay [1] (H460, conc 1 μm) it was 2 (score 2 relating to strong activity comprising more than 70% of the cells); in assay [1] (HeLa, conc 0.01 μm), 0; in assay [1] (HeLa, conc 0.1 μm) it was 0; in assay [1] (HeLa, conc 1 μm), 2 (score 2 relating to strong activity comprising more than 70% of the cells). The “Hoechst 33342 nuclear staining score” value in assay [1] (Jily, conc 0.01 μm) is on record as 0; in assay [1] (Jily, conc 0.1 μm) it was 1 (1 relating to weak activity comprising less than 70% of the cells); in assay [1] (Jily, conc 1 μm), 2 (score 2 relating to strong activity comprising more than 70% of the cells); in assay [1] (Jurkat, conc 0.01 μm), 0; in assay [1] (Jurkat, conc 0.1 μm), 1 (1 relating to weak activity comprising less than 70% of the cells); in assay [1] (Jurkat, conc 1 μm), 2 (score 2 relating to strong activity comprising more than 70% of the cells). Moreover, the “Hoechst 33342 nuclear staining score” value in assay [1] (MRC5, conc 0.01 μm) was 0; in assay [1] (MRC5, conc 0.1 μm), 0; in assay [1] (MRC5, conc 1 μm), 1 (1 relating to weak activity comprising less than 70% of the cells); in assay [1] (PBLs, conc 0.01 μm), 0; in assay [1] (PBLs, conc 0.1 μm), 0; in assay [1] (PBLs, conc 1 μm), 0.

Regarding `Cl.Nc1ccc(OCn2c(-c3nonc3N)nc3ccccc32)cc1` [Example 100], the pIC50 in the assay with HeLa was less than 6.00; with Jurkat, 6.00 to 7.00; with HT1080, less than 6.00; with MRC5, less than 6.00; in the assay on Jily, less than 6.00. In addition, the “Hoechst 33342 nuclear staining score” value is on record as 0 in assay [1] (H460, conc 0.01 μm); 0 in assay [1] (H460, conc 0.1 μm); 0 in assay [1] (H460, conc 1 μm); 0 in assay [1] (HeLa, conc 0.01 μm); 0 in assay [1] (HeLa, conc 0.1 μm); 0 in assay [1] (HeLa, conc 1 μm). The “Hoechst 33342 nuclear staining score” value is recorded as 0 in assay [1] (Jily, conc 0.01 μm); 0 in assay [1] (Jily, conc 0.1 μm); 1 (1 relating to weak activity comprising less than 70% of the cells) in assay [1] (Jily, conc 1 μm); 0 in assay [1] (Jurkat, conc 0.01 μm); 0 in assay [1] (Jurkat, conc 0.1 μm); 1 (1 relating to weak activity comprising less than 70% of the cells) in assay [1] (Jurkat, conc 1 μm). In addition, the “Hoechst 33342 nuclear staining score” value is 0 in assay [1] (MRC5, conc 0.01 μm); 0 in assay [1] (MRC5, conc 0.1 μm); 0 in assay [1] (MRC5, conc 1 μm); 0 in assay [1] (PBLs, conc 0.01 μm); 0 in assay [1] (PBLs, conc 0.1 μm); 0 in assay [1] (PBLs, conc 1 μm).
